Measured values as given in PMC11357256, “Selectivity Screening and Structure–Cytotoxic Activity Observations of Selected Oleanolic Acid (OA)-Type Saponins from the Amaranthaceae Family on a Wiade Panel of Human Cancer Cell Lines” (Molecules, 2024).

Legend:
FTC133 = test: MTT cell viability assay, FTC133 follicular thyroid carcinoma cells; assay type: cell-based, human; conditions: for IC50: Homo sapiens, FTC-133
From the text: (§1) Cell lines used in the study were grouped as follows: skin panel (melanomas: HTB140, derived from metastatic site: lymph node, ATCC Hs 294 T; malignant A375, ATCC CRL-1619; stage I primary WM793, RRID:CVCL 8787; skin keratinocytes HaCaT); prostate panel (prostate carcinomas: Du145, derived from metastatic site: brain, ATCC HTB-81; grade IV PC3, derived from metastatic site: bone, ATCC CRL-1435, LNCaP, derived from the metastatic site: lymph node, ATCC CRL-1740; prostate epithelial, PNT2, ECACC 95012613); gastrointestinal panel (colorectal adenocarcinomas: Caco2, ATCC HTB-37, HT29, ATCC HTB-38, DLD-1, ATCC CCL-221, HCT116, ATCC CCL-247, and colon epithelial cells CCD 841 CoN, ATCC CRL-1790; hepatocellular carcinoma HepG2, ATCC HB-8065); thyroid panel (follicular thyroid carcinoma FTC133, ECACC 9406090, undifferentiated thyroid carcinoma 8505C, ECACC 94090184, papillary thyroid carcinoma TPC-1, SCC147, normal thyroid follicular epithelial Nthy-ori 3–1, ECACC 90011609); and breast panel (ER-positive breast adenocarcinoma MCF7, ATCC HTB-22; ER-negative breast adenocarcinoma MDA-MB-231, ATCC HTB-26; breast epithelial MCF10A, ATCC CRL-10317). Cells were grown under standard conditions (37 °C, 5% CO2, relative humidity), and culture media (DMEM/F12 for PNT2, WM 793, HT29, PC3, FTC133, 8505 C, MDA-MB-231, TPC-1; DMEM Low Glucose for DU145; DMEM High Glucose for HTB140, A375, HaCaT; MEM with NEAA for Caco2 and MCF7; RPMI1640 with sodium pyruvate for LNCaP; DMEM/F12 with 20 ng/mL epidermal growth factor (EGF), 10 μg/mL insulin, 0.5 μg/mL hydrocortisone, 100 ng/mL cholera toxin) for MCF10A) supplemented with 10% fetal bovine serum (FBS) or 5% donor horse serum for MCF10A, and 1% antibiotics solution (10,000 U penicillin and 10 mg streptomycin/mL) […], as previously described. All cell lines, culture media, and supplements were from Sigma-Aldrich (Germany).
(§2) The cells were seeded in 96-well plates (1.5 × 10^4 cells/well). After 24 h, fresh medium was added, containing the tested compounds (0.5–100 μg/mL) and incubated for 24 or 48 h. Cell viability was determined by MTT assay, according to the manufacturer’s instructions, as described previously. Each experiment was performed in triplicate. The absorbance was measured at 570 nm using a Biotek Synergy microplate reader (BioTek Instruments Inc., Winooski, VT, USA). Cell viability was expressed as a percent of control (untreated cells). Doxorubicin was used as a reference drug.
(§3) The selectivity index (SI) was calculated from the following formula:SI = IC50 of compound in a normal cell line/IC50 of compound in cancer cell line.IC50, half maximal inhibitory concentration, is a concentration required to kill 50% of the cells.

HCT116 = test: MTT cell viability assay, HCT116 colon cancer cells; assay type: cell-based; conditions: Homo sapiens, HCT-116
From the text: as §1, §2

A375 = test: MTT cell viability assay, A375 malignant melanoma cells; assay type: cell-based, human; conditions: for IC50: Homo sapiens, A-375
From the text: as §1, §2, §3

PC3 = test: MTT cell viability assay, PC3 prostate carcinoma cells; assay type: cell-based; conditions: Homo sapiens, PC-3
From the text: as §1, §2

HT29 = test: MTT cell viability assay, HT29 colorectal adenocarcinoma cells; assay type: cell-based; conditions: Homo sapiens, HT-29
From the text: as §1, §2

MDA-MB-231 = test: MTT cell viability assay, MDA-MB-231 breast adenocarcinoma cells; assay type: cell-based; conditions: Homo sapiens
From the text: as §1, §2

DLD-1 = test: MTT cell viability assay, DLD-1 colon cancer cells; assay type: cell-based; conditions: Homo sapiens
From the text: as §1, §2

HaCaT = test: MTT cell viability assay, HaCaT keratinocytes; assay type: cell-based; conditions: Homo sapiens
From the text: as §1, §2

MCF7 = test: MTT cell viability assay, MCF7 breast adenocarcinoma cells; assay type: cell-based; conditions: Homo sapiens
From the text: as §1, §2

MCF10A = test: MTT cell viability assay, MCF10A normal breast epithelial cells; assay type: cell-based; conditions: Homo sapiens, MCF-10A
From the text: as §1, §2

LNCaP = test: MTT cell viability assay, LNCaP prostate adenocarcinoma cells; assay type: cell-based; conditions: Homo sapiens
From the text: as §1, §2

HTB-140 = test: MTT cell viability assay, HTB-140 metastatic melanoma cells; assay type: cell-based, human; conditions: for IC50: Homo sapiens
From the text: as §1, §2, §3

HepG2 = test: MTT cell viability assay, HepG2 hepatocellular carcinoma cells; assay type: cell-based; conditions: Homo sapiens
From the text: as §1, §2

Caco-2 = test: MTT cell viability assay, Caco-2 colon cancer cells; assay type: cell-based; conditions: Homo sapiens
From the text: as §1, §2

PNT2 = test: MTT cell viability assay, PNT2 normal prostate epithelial cells; assay type: cell-based; conditions: Homo sapiens
From the text: as §1, §2

TPC-1 = test: MTT cell viability assay, TPC-1 papillary thyroid carcinoma cells; assay type: cell-based, human; conditions: for IC50: Homo sapiens, TPC1
From the text: as §1, §2, §3

CCD 841 CoN = test: MTT cell viability assay, CCD 841 CoN normal colon epithelial cells; assay type: cell-based; conditions: Homo sapiens
From the text: as §1, §2

8505C = test: MTT cell viability assay, 8505C undifferentiated thyroid carcinoma cells; assay type: cell-based, human; conditions: Homo sapiens, 8505C
From the text: as §1, §2, §3

Nthy-ori 3-1 = test: MTT cell viability assay, Nthy-ori 3-1 normal thyroid epithelial cells; assay type: cell-based; conditions: Homo sapiens
From the text: as §1, §2

WM793 = test: MTT cell viability assay, WM793 primary melanoma cells; assay type: cell-based, human; conditions: for IC50: Homo sapiens
From the text: as §1, §2, §3

Du-145 = test: MTT cell viability assay, Du-145 prostate carcinoma cells; assay type: cell-based; conditions: Homo sapiens
From the text: as §1, §2

SMILES: CC1(C)CC[C@]2(C(=O)O[C@@H]3O[C@H](CO)[C@@H](O)[C@H](O)[C@H]3O)CC[C@]3(C)C(=CC[C@@H]4[C@@]5(C)CC[C@H](O[C@@H]6O[C@H](C(=O)O)[C@@H](O)[C@H](O)[C@H]6O)C(C)(C)[C@@H]5CC[C@]43C)[C@@H]2C1 [ChIVa, 3-O-β-D-glucuronopyranosyl oleanolic acid 28-O-β-D-glucopyranosyl ester]
- IC50 (FTC133; FTC133, 24 h): 8.5 µg/mL
- IC50 (FTC133; FTC133, 48 h): 4 µg/mL
- Selectivity Index (SI) (FTC133; IC50 Nthy-ori 3-1 / IC50 FTC133, 24 h): > 11.76
- Selectivity Index (SI) (FTC133; IC50 Nthy-ori 3-1 / IC50 FTC133, 48 h): > 25.1
- IC50 (HCT116; HCT116, 24 h): > 100 µg/mL
- IC50 (HCT116; HCT116, 48 h): 78.2 µg/mL
- IC50 (A375; A375, 24 h): 1.6 µg/mL
- IC50 (A375; A375, 48 h): 0.6 µg/mL
- Selectivity Index (SI) (A375; IC50 HaCaT / IC50 A375, 24 h): 4.6
- IC50 (PC3; PC3, 24 h): 45.6 µg/mL
- IC50 (PC3; PC3, 48 h): 22.8 µg/mL
- IC50 (HT29; HT29, 24 h): 14.9 µg/mL
- IC50 (HT29; HT29, 48 h): 5.6 µg/mL
- IC50 (MDA-MB-231; MDA-MB-231, 24 h): > 100 µg/mL
- IC50 (MDA-MB-231; MDA-MB-231, 48 h): 98.1 µg/mL
- IC50 (DLD-1; DLD-1, 24 h): > 100 µg/mL
- IC50 (DLD-1; DLD-1, 48 h): 50.3 µg/mL
- IC50 (HaCaT; 24 h): 7.3 µg/mL
- IC50 (HaCaT; 48 h): 3.1 µg/mL
- IC50 (MCF7; MCF7, 24 h): > 100 µg/mL
- IC50 (MCF7; MCF7, 48 h): > 100 µg/mL
- IC50 (MCF7; MCF7, MCF-7, incubation time not stated): > 100 µg/mL
- IC50 (MCF10A; 24 h): > 100 µg/mL
- IC50 (MCF10A; 48 h): > 100 µg/mL
- IC50 (LNCaP; 24 h): > 100 µg/mL
- IC50 (LNCaP; 48 h): > 100 µg/mL
- IC50 (HTB-140; HTB-140, 24 h): 15 µg/mL
- IC50 (HTB-140; HTB-140, 48 h): 8.7 µg/mL
- Selectivity Index (SI) (HTB-140; IC50 HaCaT / IC50 HTB-140, 24 h): 0.5
- Selectivity Index (SI) (HTB-140; IC50 HaCaT / IC50 HTB-140, 48 h): 0.4
- IC50 (HepG2; HepG2, 24 h): 30 µg/mL
- IC50 (HepG2; HepG2, 48 h): 20.9 µg/mL
- IC50 (Caco-2; Caco-2, 24 h): 69 µg/mL
- IC50 (Caco-2; Caco-2, 48 h): 15.8 µg/mL
- IC50 (PNT2; 24 h): > 100 µg/mL
- IC50 (PNT2; 48 h): > 100 µg/mL
- IC50 (TPC-1; TPC-1, 24 h): > 100 µg/mL
- IC50 (TPC-1; TPC-1, 48 h): 81.8 µg/mL
- Selectivity Index (SI) (TPC-1; IC50 Nthy-ori 3-1 / IC50 TPC-1, 48 h): > 1.2
- IC50 (CCD 841 CoN; 24 h): > 100 µg/mL
- IC50 (CCD 841 CoN; 48 h): > 100 µg/mL
- IC50 (8505C; 24 h): > 100 µg/mL
- IC50 (8505C; 48 h): > 100 µg/mL
- IC50 (Nthy-ori 3-1; 24 h): > 100 µg/mL
- IC50 (Nthy-ori 3-1; 48 h): > 100 µg/mL
- IC50 (WM793; WM793, 24 h): 18.5 µg/mL
- IC50 (WM793; WM793, 48 h): 4.4 µg/mL
- Selectivity Index (SI) (WM793; IC50 HaCaT / IC50 WM793, 24 h): 0.4
- Selectivity Index (SI) (WM793; IC50 HaCaT / IC50 WM793, 48 h): 0.7
- IC50 (Du-145; DU-145, 24 h): 22.9 µg/mL
- IC50 (Du-145; DU-145, 48 h): 9.1 µg/mL
